Laboratory results reported in patent US10611728B2, “Isoindoline compositions and methods for treating neurodegenerative disease” (priority 2014, dated 2020).
“Also recorded” adds a separate entry of the source.

Experiments:
caspase-3 = conditions: cited from earlier work; for caspase-3 activation by ligand: tumor cells and neurons
neurons = conditions: neuronal cultures treated 24 hours; cited from earlier work
[1] = Microsomal stability in mouse liver microsomes (MLM); type: in vitro ADME; conditions: mouse, microsomes
Protocol: A first pharmacokinetic study was performed in microsomes of mice mouse liver microsomes, MLM) by a commercial contract research organization. The studies were performed according to Obach, R. S et al. (1997) J. Pharmacol. Exp. Ther., 283: 46-58, which is incorporated herein by reference.

neuronal cultures = experiment: Functional neuronal phenotype in neuronal cultures; type: cell-based
Protocol: Neuronal cultures are treated with various concentrations of sigma compounds for 24 hours and nuclear intensity compared to vehicle is measured.

Structure (SMILES) | caspase-3 activation by ligand (caspase-3) | inhibition of caspase-3 activation in tumor cells (caspase-3; tumor cells) | nuclear morphology / nuclear intensity in neurons (neurons) | Mouse liver microsomes, MLM t½ [1] | neuronal phenotype (neuronal cultures)
COc1cc2c(cc1OC)CN(CCCCNC(=O)c1cc(C)ccc1OC)CC2 [RHM-1, N-[4-(3,4-dihydro-6,7-dimethoxyisoquinolin-2(1H)-yl)butyl]-2-methoxy-5-methylbenzamide] | do not induce caspase-3 activity | inhibits the activation in tumor cells | do not decrease nuclear intensity |  | 
COc1ccc(C)cc1NC(=O)OC1C[C@H]2CCC[C@@H](C1)N2CCCCCCN (stereo partly shown) [SV-119] | activate caspase-3 in tumor cells and neurons |  | cause significant abnormal nuclear morphology in neurons |  | 
Fc1ccc(-n2cc(CCCCN3CCC4(CC3)OCc3ccccc34)c3ccccc32)cc1 [Siramesine] | activate caspase-3 in tumor cells and neurons; also recorded: induces caspase-3 activity |  | cause significant abnormal nuclear morphology in neurons |  | 
CC(C)Oc1cc(CC[C@@H](C)N2Cc3cc4c(cc3C2)OCO4)ccc1O [compound 25] |  |  |  | 4 min | Inactive/IAACon
CC(C)Oc1cc(CCC(C)(C)N2Cc3cc4c(cc3C2)OCO4)ccc1O [compound 29] |  |  |  | 6 min | Inactive/IAACon
C[C@H](CCc1ccc(OC(=O)N(C)C)c(OC(F)(F)F)c1)N1Cc2cccc(F)c2C1 [compound 41] |  |  |  | 9 min | Inactive/IAACon
